Values after ≈ are worked out from the molar mass of the structure shown. Active and inactive are the calls of the source. No cut-off for these calls is given here. Residues, ends and D or L forms follow the SMILES beside them. *: point of attachment. βGlc = OC[C@H]1O[C@@H](*)[C@H](O)[C@@H](O)[C@@H]1O; βGal = OC[C@H]1O[C@@H](*)[C@H](O)[C@@H](O)[C@H]1O; Palmitoyl = CCCCCCCCCCCCCCCC(=O)*; Lauroyl = CCCCCCCCCCCC(=O)*; Octanoyl = CCCCCCCC(=O)*
Assays:
Pseudomonas aeruginosa [1] = assay: Antibiofilm activity against Pseudomonas aeruginosa PAO1 assessed as inhibition of biofilm formation at 8 to 32 uM incubated for 24 hrs by microplate reader analysis relative to control; assay type: functional; settings: dose 8-32 µM, read-out: MIC
Staphylococcus aureus [2] = assay: Antibacterial activity against Staphylococcus aureus assessed as bacterial growth inhibition; assay type: functional
Cell membrane = assay: Induction of outer membrane permeabilization in Pseudomonas aeruginosa PAO1 assessed as increase in NPN uptake at 8 to 32 uM by NPN-dye based fluorescence analysis; settings: dose 8-32 µM
Pseudomonas aeruginosa [3] = assay: Antibacterial activity against Pseudomonas aeruginosa assessed as bacterial growth inhibition; assay type: functional
Escherichia coli = assay: Antibacterial activity against Escherichia coli assessed as bacterial growth inhibition; assay type: functional
Staphylococcus aureus [4] = assay: Antibacterial activity against methicillin-resistant Staphylococcus aureus assessed as bacterial growth inhibition; assay type: functional
Pseudomonas aeruginosa [5] = assay: Antibiofilm activity against Pseudomonas aeruginosa PAO1; assay type: functional, organism-based
Pseudomonas aeruginosa [6] = assay: Antibiofilm activity against Pseudomonas aeruginosa PAO1 assessed as removal of mature biofilm at 32 uM incubated for 4 hrs at relative to control; assay type: functional
[7] = target: T1, PA-I galactophilic lectin (Pseudomonas aeruginosa (strain ATCC 15692 / PAO1 / 1C / PRS 101 / LMG12228)) (UniProt Q05097); assay: Binding affinity to Pseudomonas aeruginosa LecA assessed as change in entropy
T1 sequence (whole entry): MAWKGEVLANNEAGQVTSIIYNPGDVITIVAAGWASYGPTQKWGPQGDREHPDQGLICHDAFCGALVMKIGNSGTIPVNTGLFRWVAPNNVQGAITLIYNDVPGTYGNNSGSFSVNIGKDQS

[8] = target: T2, PA-I galactophilic lectin (Pseudomonas aeruginosa (strain ATCC 15692 / PAO1 / 1C / PRS 101 / LMG12228), UniProt Q05097); assay: Binding affinity to Pseudomonas aeruginosa LecA assessed as dissociation constant
T2 sequence (Q05097 whole entry): T1 sequence (whole entry)

Pseudomonas aeruginosa [9] = assay: Antibiofilm activity against Pseudomonas aeruginosa PAO1 assessed as inhibition of biofilm formation at 32 uM incubated for 24 hrs by microplate reader analysis relative to control; assay type: functional
[10] = target: T1, PA-I galactophilic lectin (Pseudomonas aeruginosa (strain ATCC 15692 / PAO1 / 1C / PRS 101 / LMG12228)); assay: Binding affinity to Pseudomonas aeruginosa LecA assessed as change in enthalpy
Pseudomonas aeruginosa [11] = assay: Antibiofilm activity against Pseudomonas aeruginosa PAO1 assessed as increase in biofilm inhibition ratio at half MIC concentration incubated for 24 hrs by microplate reader analysis relative to control; assay type: functional; set-up: scale not given: the % may be the effect or the level left
Pseudomonas aeruginosa [12] = assay: Antibiofilm activity against Pseudomonas aeruginosa PAO1 assessed as increase in biofilm inhibition ratio at 2 times of MIC concentration incubated for 24 hrs by microplate reader analysis relative to control; assay type: functional; set-up: scale not given: the % may be the effect or the level left
Pseudomonas aeruginosa [13] = assay: Antibiofilm activity against Pseudomonas aeruginosa PAO1 assessed as increase in biofilm inhibition ratio at MIC concentration incubated for 24 hrs by microplate reader analysis relative to control; assay type: functional; set-up: scale not given: the % may be the effect or the level left
Pseudomonas aeruginosa [14] = assay: Antibiofilm activity against Pseudomonas aeruginosa PAO1 assessed as inhibition of biofilm formation ratio at 2 times of MIC concentration incubated for 24 hrs by microplate reader analysis relative to control; assay type: functional; set-up: scale not given: the % may be the effect or the level left
[15] = Hemolytic activity in sheep RBC assessed as hemolysis; assay type: toxicity, cell-based, Ovis aries; settings: erythrocyte
Pseudomonas aeruginosa [16] = assay: Antibiofilm activity against Pseudomonas aeruginosa PAO1 assessed as inhibition of biofilm formation ratio at MIC concentration incubated for 24 hrs by microplate reader analysis relative to control; assay type: functional; set-up: scale not given: the % may be the effect or the level left
[17] = Hemolytic activity in sheep RBC assessed as hemolysis at 128 uM; assay type: toxicity, cell-based, Ovis aries; settings: erythrocyte

Compound	Minimum biofilm inhibitory concentration (Pseudomonas aeruginosa [1]) [µM]	MIC (Staphylococcus aureus [2]) [µM]	Activity (Cell membrane)	MIC (Pseudomonas aeruginosa [3]) [µM]	MIC (Escherichia coli) [µM]	MIC (Staphylococcus aureus [4]) [µM]	Activity (Pseudomonas aeruginosa [5])	Activity (Pseudomonas aeruginosa [6]) [%]	deltaS [7] [J/mol/K]	Kd [8] [µM]	MIC (Pseudomonas aeruginosa [9]) [µM]	deltaH [10] [kcal/mol]	Activity (Pseudomonas aeruginosa [11]) [%]	Activity (Pseudomonas aeruginosa [12]) [%]	Activity (Pseudomonas aeruginosa [13]) [%]	Activity (Pseudomonas aeruginosa [14]) [%]	Activity [15]	Activity (Pseudomonas aeruginosa [16]) [%]	Activity [17]
CCCCCCCCCCCCCCCC(=O)NCC(=O)N[C@H](C(=O)N[C@H](C(=O)N[C@@H](CCCCN)C(=O)N[C@@H](CCCCN)C(=O)N[C@H](C(=O)N[C@H](C(=O)N[C@@H](CCCCN)C(=O)N[C@@H](CCCCN)C(=O)N[C@H](C(=O)N[C@H](C(=O)N[C@@H](CCCCN)C(=O)N[C@@H](CCCCN)C(=O)N[C@H](C(N)=O)[C@@H](C)CC)[C@@H](C)CC)[C@@H](C)CC)[C@@H](C)CC)[C@@H](C)CC)[C@@H](C)CC)[C@@H](C)CC (Palmitoyl-GIIKKIIKKIIKKI-NH2)	16	16 (≈ 30 µg/mL)	Active	32 (≈ 60 µg/mL)	32 (≈ 60 µg/mL)	32 (≈ 60 µg/mL)	–	–	–	–	–	–	–	–	–	–	–	–	–
CC[C@H](C)[C@H](NC(=O)CN)C(=O)N[C@H](C(=O)N[C@@H](CCCCN)C(=O)N[C@@H](CCCCN)C(=O)N[C@H](C(=O)N[C@H](C(=O)N[C@@H](CCCCN)C(=O)N[C@@H](CCCCN)C(=O)N[C@H](C(=O)N[C@H](C(=O)N[C@@H](CCCCN)C(=O)N[C@@H](CCCCN)C(=O)N[C@H](C(=O)N[C@@H](CO[C@@H]1O[C@H](CO)[C@@H](O)[C@H](O)[C@H]1O)C(N)=O)[C@@H](C)CC)[C@@H](C)CC)[C@@H](C)CC)[C@@H](C)CC)[C@@H](C)CC)[C@@H](C)CC (H-GIIKKIIKKIIKKIS(βGlc)-NH2)	16	16 (≈ 30.2 µg/mL)	Active	16 (≈ 30.2 µg/mL)	32 (≈ 60.3 µg/mL)	32 (≈ 60.3 µg/mL)	Active	71	–	–	–	–	–	–	–	–	–	–	–
CCCCCCCCCCCC(=O)NCC(=O)N[C@H](C(=O)N[C@H](C(=O)N[C@@H](CCCCN)C(=O)N[C@@H](CCCCN)C(=O)N[C@H](C(=O)N[C@H](C(=O)N[C@@H](CCCCN)C(=O)N[C@@H](CCCCN)C(=O)N[C@H](C(=O)N[C@H](C(=O)N[C@@H](CCCCN)C(=O)N[C@@H](CCCCN)C(=O)N[C@H](C(N)=O)[C@@H](C)CC)[C@@H](C)CC)[C@@H](C)CC)[C@@H](C)CC)[C@@H](C)CC)[C@@H](C)CC)[C@@H](C)CC (Lauroyl-GIIKKIIKKIIKKI-NH2)	16	4 (≈ 7.27 µg/mL)	Active	16 (≈ 29.1 µg/mL)	12 (≈ 21.8 µg/mL)	12 (≈ 21.8 µg/mL)	–	–	–	–	–	–	–	–	–	–	–	–	–
CC[C@H](C)[C@H](NC(=O)CN)C(=O)N[C@H](C(=O)N[C@@H](CCCCN)C(=O)N[C@@H](CCCCN)C(=O)N[C@H](C(=O)N[C@H](C(=O)N[C@@H](CCCCN)C(=O)N[C@@H](CCCCN)C(=O)N[C@H](C(=O)N[C@H](C(=O)N[C@@H](CCCCN)C(=O)N[C@@H](CCCCN)C(=O)N[C@H](C(=O)N[C@@H](CO[C@@H]1O[C@H](CO)[C@H](O)[C@H](O)[C@H]1O)C(N)=O)[C@@H](C)CC)[C@@H](C)CC)[C@@H](C)CC)[C@@H](C)CC)[C@@H](C)CC)[C@@H](C)CC (H-GIIKKIIKKIIKKIS(βGal)-NH2)	16	16 (≈ 30.2 µg/mL)	Active	16 (≈ 30.2 µg/mL)	32 (≈ 60.3 µg/mL)	32 (≈ 60.3 µg/mL)	Active	62	-246	21.1	32 (≈ 60.3 µg/mL)	-23.9	–	–	–	–	–	–	–
CCCCCCCC(=O)NCC(=O)N[C@H](C(=O)N[C@H](C(=O)N[C@@H](CCCCN)C(=O)N[C@@H](CCCCN)C(=O)N[C@H](C(=O)N[C@H](C(=O)N[C@@H](CCCCN)C(=O)N[C@@H](CCCCN)C(=O)N[C@H](C(=O)N[C@@H](CO[C@@H]1O[C@H](CO)[C@H](O)[C@H](O)[C@H]1O)C(N)=O)[C@@H](C)CC)[C@@H](C)CC)[C@@H](C)CC)[C@@H](C)CC)[C@@H](C)CC (Octanoyl-GIIKKIIKKIS(βGal)-NH2)	16	4 (≈ 6.11 µg/mL)	Active	16 (≈ 24.4 µg/mL)	12 (≈ 18.3 µg/mL)	4 (≈ 6.11 µg/mL)	–	–	-4.53	28	–	-6.53	–	–	–	–	–	–	–
H-GIIKKIIKKIIKKI-NH2	16	4	Active	16	8	16	–	–	–	–	–	–	45	59	46	–	–	–	–
Ac-GIIKKIIKKIIKKI-NH2	16	4	Active	32	12	12	–	–	–	–	–	–	–	–	–	–	–	–	–
CCCCCCCC(=O)NCC(=O)N[C@H](C(=O)N[C@H](C(=O)N[C@@H](CCCCN)C(=O)N[C@@H](CCCCN)C(=O)N[C@H](C(=O)N[C@H](C(=O)N[C@@H](CCCCN)C(=O)N[C@@H](CCCCN)C(=O)N[C@H](C(=O)N[C@H](C(=O)N[C@@H](CCCCN)C(=O)N[C@@H](CCCCN)C(=O)N[C@H](C(=O)N[C@@H](CO[C@@H]1O[C@H](CO)[C@H](O)[C@H](O)[C@H]1O)C(N)=O)[C@@H](C)CC)[C@@H](C)CC)[C@@H](C)CC)[C@@H](C)CC)[C@@H](C)CC)[C@@H](C)CC)[C@@H](C)CC (Octanoyl-GIIKKIIKKIIKKIS(βGal)-NH2)	16	4 (≈ 8.04 µg/mL)	Active	16 (≈ 32.2 µg/mL)	4 (≈ 8.04 µg/mL)	4 (≈ 8.04 µg/mL)	Active	–	29.4	14.1	–	-4.53	–	–	–	71	Dose-Dependent Effect	71	–
CCCCCCCC(=O)NCC(=O)N[C@H](C(=O)N[C@H](C(=O)N[C@@H](CCCCN)C(=O)N[C@@H](CCCCN)C(=O)N[C@H](C(=O)N[C@H](C(=O)N[C@@H](CCCCN)C(=O)N[C@@H](CCCCN)C(=O)N[C@H](C(=O)N[C@H](C(=O)N[C@@H](CCCCN)C(=O)N[C@@H](CCCCN)C(=O)N[C@H](C(N)=O)[C@@H](C)CC)[C@@H](C)CC)[C@@H](C)CC)[C@@H](C)CC)[C@@H](C)CC)[C@@H](C)CC)[C@@H](C)CC (Octanoyl-GIIKKIIKKIIKKI-NH2)	16	4 (≈ 7.05 µg/mL)	Active	16 (≈ 28.2 µg/mL)	4 (≈ 7.05 µg/mL)	4 (≈ 7.05 µg/mL)	–	–	–	–	–	–	–	–	–	–	–	–	Toxic

— ChEMBL document CHEMBL5247660, “The lipidation and glycosylation enabling bioactivity enhancement and structural change of antibacterial peptide G3” (Bioorg Med Chem Lett, 2023)
